Test results published in paper PMC10600239, “Selective MCL-1 inhibitor ABBV-467 is efficacious in tumor models but is associated with cardiac troponin increases in patients” (Communications Medicine, 2023).
Several values for one entry are separate records, joined by “and”; a condition that tells them apart may be missing. Equal entries are not always repeated.

Test system: MV4-11-Red.Fluc
Experiment: Systemic MV4-11-Red.Fluc model (bioluminescence, total flux)
Format: in vivo, mouse
Experimental: All animal studies were conducted in accordance with the guidelines approved by the Institutional Animal Care and Use Committees of AbbVie. The research protocol was approved by In Vivo Pharmacology at AbbVie prior to study initiation but was not publicly registered or disclosed. Female C.B-17 SCID-beige mice (AMO-1, OPM-2, NCI-H929, and OCI-AML2 xenografts) and female NSG mice (MV4-11-Red.Fluc systemic) were purchased from Charles River Laboratories (Wilmington, MA). Animals were housed in a light cycle-controlled room with HEPA filtration at 22 °C. Animals had nesting and climbing cage topper as the primary environmental enrichment. Animals were inoculated subcutaneously in the right flank with 5 × 10^6 (AMO-1, OPM-2, NCI-H929, and OCI-AML2) or intravenous (IV) with 5 × 10^6 (MV4-11-Red.Fluc). The inoculation volume (0.2 mL) comprised a 50:50 mixture of cells in growth media and Matrigel (BD Biosciences) for subcutaneous injections and 100% phosphate-buffered saline for IV administration. All cell lines used in this publication were authenticated using IDEXX for STR profiling as well as their IMPACT and human IMPACT panels for pathogen screening. Electronic calipers were used to measure the length and width of each tumor 2 to 3 times per week. Tumor volume was estimated by applying the following equation: volume = length × width^2/2. All groups remained blinded during measurements and dosing; only veterinary staff were aware of group identity. When tumors reached approximately 200 mm^3, mice were randomized by match and distributed into treatment and control groups. All xenograft trials were conducted using 5 to 10 mice per group, and all mice were ear tagged and monitored individually throughout the studies. Any animal with a tumor above 2000 mm^3 or 15% loss in body weight was euthanized and removed from the study. Tumor burden in the systemic MV4-11-Red.Fluc experiment was measured using an IVIS® spectrum from PerkinElmer by taking the total photon flux of the entire dorsal side of an individual mouse. Ten minutes prior to imaging, animals received intraperitoneally 0.2 mL of a 15-mg/mL solution of D-Luciferin (PerkinElmer, Catalog #122799) formulated in 100% phosphate-buffered saline. Animals were anesthetized using 3.5% isoflurane and maintained using 2%. Six days after inoculation, animals were imaged and randomized into vehicle and treatment groups at a total flux of ~1 × 10^8. A background control mouse that was tumor naive but received D-Luciferin was placed in the upper left corner of each image. The total flux from this animal was subtracted from the total flux of each animal present in the image. […]

[1] = Day 10, individual mice (ROI 2-10), listed as ABT-199
[2] = Day 13, individual mice (ROI 2-10), listed as ABT-199
[3] = Day 17, individual mice (ROI 2-10), listed as ABT-199
[4] = Day 20, individual mice (ROI 2-10), listed as ABT-199
[5] = Day 24, individual mice (ROI 2-10), listed as ABT-199
[6] = Day 31, individual mice (ROI 2-10), listed as ABT-199

CC1(C)CCC(CN2CCN(c3ccc(C(=O)NS(=O)(=O)c4ccc(NCC5CCOCC5)c([N+](=O)[O-])c4)c(Oc4cnc5[nH]ccc5c4)c3)CC2)=C(c2ccc(Cl)cc2)C1 [venetoclax]
antitumor activity (50 mg/kg for 21 days, PO): no antitumor activity | Total Flux (648 h): 2.48E+10 p/s | Total Flux minus ROI 1 (background) (648 h): 2.48E+10 p/s | Total Flux [p/s] [1]: 3.06E+08 p/s and 5.81E+08 p/s and 2.31E+08 p/s and 9.72E+08 p/s and 7.29E+08 p/s and 4.72E+08 p/s and 3.55E+08 p/s and 4.65E+08 p/s and 4.49E+08 p/s | Total flux minus background control mouse (ROI 1) [1]: 3.02E+08 p/s and 5.77E+08 p/s and 2.27E+08 p/s and 9.68E+08 p/s and 7.24E+08 p/s and 4.68E+08 p/s and 3.50E+08 p/s and 4.61E+08 p/s and 4.45E+08 p/s | Total Flux [p/s] [2]: 1.30E+09 p/s and 1.10E+09 p/s and 6.50E+08 p/s and 9.71E+08 p/s and 1.65E+09 p/s and 8.95E+08 p/s and 8.72E+08 p/s and 1.18E+09 p/s and 1.23E+09 p/s | Total flux minus background control mouse (ROI 1) [2]: 1.29E+09 p/s and 1.09E+09 p/s and 6.41E+08 p/s and 9.63E+08 p/s and 1.64E+09 p/s and 8.87E+08 p/s and 8.64E+08 p/s and 1.18E+09 p/s and 1.22E+09 p/s | Total Flux [p/s] [3]: 3.56E+09 p/s and 4.83E+09 p/s and 3.68E+09 p/s and 6.21E+09 p/s and 6.82E+09 p/s and 2.69E+09 p/s and 4.42E+09 p/s and 4.69E+09 p/s and 4.88E+09 p/s | Total flux minus background control mouse (ROI 1) [3]: 3.54E+09 p/s and 4.80E+09 p/s and 3.65E+09 p/s and 6.19E+09 p/s and 6.79E+09 p/s and 2.67E+09 p/s and 4.40E+09 p/s and 4.67E+09 p/s and 4.85E+09 p/s | Total Flux [p/s] [4]: 8.57E+09 p/s and 1.38E+10 p/s and 5.34E+09 p/s and 1.24E+10 p/s and 6.94E+09 p/s and 6.64E+09 p/s and 8.48E+09 p/s and 1.02E+10 p/s and 9.62E+09 p/s | Total flux minus background control mouse (ROI 1) [4]: 8.51E+09 p/s and 1.38E+10 p/s and 5.28E+09 p/s and 1.23E+10 p/s and 6.88E+09 p/s and 6.58E+09 p/s and 8.42E+09 p/s and 1.02E+10 p/s and 9.56E+09 p/s | Total Flux [p/s] [5]: 9.23E+09 p/s and 1.74E+10 p/s and 6.63E+09 p/s and 2.32E+10 p/s and 2.87E+10 p/s and 1.25E+10 p/s and 1.47E+10 p/s and 1.56E+10 p/s and 1.06E+10 p/s | Total flux minus background control mouse (ROI 1) [5]: 9.16E+09 p/s and 1.73E+10 p/s and 6.56E+09 p/s and 2.31E+10 p/s and 2.87E+10 p/s and 1.24E+10 p/s and 1.46E+10 p/s and 1.55E+10 p/s and 1.06E+10 p/s | Total Flux minus ROI 1 (background) (Day 27, individual ROI (one per animal), background-subtracted, listed as ABT-199): 2.02E+10 p/s and 1.49E+10 p/s and 4.29E+10 p/s and 4.73E+10 p/s and 2.09E+10 p/s and 3.23E+10 p/s and 1.93E+10 p/s and 2.82E+10 p/s | Total Flux (Day 27, individual ROI (one per animal, ROI 2-10), raw value, listed as ABT-199): 2.04E+10 p/s and 1.50E+10 p/s and 4.31E+10 p/s and 4.74E+10 p/s and 2.11E+10 p/s and 3.24E+10 p/s and 1.94E+10 p/s and 2.84E+10 p/s | Total Flux [p/s] [6]: 3.95E+10 p/s and 4.22E+10 p/s and 3.73E+10 p/s and 1.10E+11 p/s and 6.34E+10 p/s and 6.46E+10 p/s and 6.17E+10 p/s and 4.73E+10 p/s and 4.87E+10 p/s | Total flux minus background control mouse (ROI 1) [6]: 3.92E+10 p/s and 4.19E+10 p/s and 3.70E+10 p/s and 1.10E+11 p/s and 6.31E+10 p/s and 6.43E+10 p/s and 6.13E+10 p/s and 4.70E+10 p/s and 4.84E+10 p/s | Total Flux minus ROI 1 (background) (Day 34, individual ROI (one per animal), background-subtracted, listed as ABT-199): 6.39E+10 p/s and 5.69E+10 p/s and 4.58E+10 p/s and 3.00E+11 p/s and 1.05E+11 p/s and 1.25E+11 p/s and 8.20E+10 p/s and 1.20E+11 p/s and 6.30E+10 p/s | Total Flux (Day 34, individual ROI (one per animal, ROI 2-10), raw value, listed as ABT-199): 6.47E+10 p/s and 5.77E+10 p/s and 4.66E+10 p/s and 3.01E+11 p/s and 1.06E+11 p/s and 1.26E+11 p/s and 8.28E+10 p/s and 1.21E+11 p/s and 6.39E+10 p/s | Total Flux minus ROI 1 (background) (Day 38, individual ROI (one per animal), background-subtracted, listed as ABT-199): 3.53E+10 p/s and 1.45E+11 p/s and 3.00E+11 p/s and 1.27E+11 p/s and 1.37E+11 p/s and 1.69E+11 p/s and 9.41E+10 p/s and 1.57E+11 p/s | Total Flux (Day 38, individual ROI (one per animal, ROI 2-10), raw value, listed as ABT-199): 3.60E+10 p/s and 1.46E+11 p/s and 3.01E+11 p/s and 1.27E+11 p/s and 1.38E+11 p/s and 1.69E+11 p/s and 9.48E+10 p/s and 1.57E+11 p/s | Total Flux minus ROI 1 (background) (Day 41, individual ROI (one per animal), background-subtracted, listed as ABT-199): 2.65E+11 p/s and 1.77E+09 p/s and 1.55E+11 p/s and 4.70E+11 p/s and -1.25E+08 p/s and 2.06E+11 p/s and 5.84E+11 p/s and 2.05E+08 p/s and 1.78E+11 p/s | Total Flux (Day 41, individual ROI (one per animal, ROI 2-10), raw value, listed as ABT-199): 2.66E+11 p/s and 3.30E+09 p/s and 1.57E+11 p/s and 4.71E+11 p/s and 1.41E+09 p/s and 2.08E+11 p/s and 5.85E+11 p/s and 1.74E+09 p/s and 1.80E+11 p/s | Total Flux minus ROI 1 (background) (Day 45, individual ROI (one per animal), background-subtracted, listed as ABT-199): -3.57E+08 p/s and -4.07E+08 p/s and -2.51E+08 p/s and -8.01E+08 p/s and 2.76E+08 p/s and 4.15E+11 p/s and -2.10E+07 p/s and 1.27E+08 p/s and 8.71E+11 p/s | Total Flux (Day 45, individual ROI (one per animal, ROI 2-10), raw value, listed as ABT-199): 9.69E+08 p/s and 9.19E+08 p/s and 1.08E+09 p/s and 5.25E+08 p/s and 1.60E+09 p/s and 4.16E+11 p/s and 1.30E+09 p/s and 1.45E+09 p/s and 8.72E+11 p/s | Total Flux minus ROI 1 (background) (Day 52, individual ROI (one per animal), background-subtracted, listed as ABT-199): 4.43E+11 p/s and 2.98E+10 p/s
